# According to US20250136586A1, “Substituted 7-(Pyrimidin-4-yl)Quinolin-4(1H)-One Compounds as Cyclin Dependent Kinase Inhibitors” (BeiGene, Ltd., priority 2022, published 2025):
# Legend:
# CDK4/Cyclin D1 = CDK4/Cyclin D1 (Homo sapiens (Human), UniProt P11802); test: TR-FRET kinase inhibition assay, CDK4/Cyclin D1; type: biochemical; conditions: 1 mM ATP, 0.15 μM Rb (Ser780)-biotin substrate, read-out: CDK4D1 IC50
# Method: Compounds disclosed herein were tested for inhibition of CDK4/Cyclin D1 or CDK6/Cyclin D3 kinase in an assay based on the time-resolved fluorescence-resonance energy transfer (TR-FRET) methodology. […] The kinase was incubated with compound for 60 minutes at room temperature and the reaction was initiated by the addition of ATP and Rb (Ser780)-biotin substrate. After reaction at room temperature for 120 minutes, an equal volume of stop/detection solution was added according to the manufacture's instruction (Cisbio Bioassays). The stop/detection solution contained Streptavidin-XL665 and Anti-pRb (Ser780) mAb-Eu Cryptate in Detection buffer (Cisbio Bioassays). […] The inhibition percentage of CDK4/Cyclin D1 or CDK6/Cyclin D3 kinase activity in presence of increasing concentrations of compounds was calculated based on the ratio of fluorescence at 665 nm to that at 620 nm. The IC50 for each compound was derived from fitting the data to the four-parameter logistic equation by Dotmatics.
# CDK6/Cyclin D3 = CDK6/Cyclin D3 (Homo sapiens (Human), UniProt Q00534); test: TR-FRET kinase inhibition assay, CDK6/Cyclin D3; type: biochemical; conditions: 1 mM ATP, 0.15 μM Rb (Ser780)-biotin substrate, read-out: CDK6D3 IC50
# Sequence of CDK6/Cyclin D3 (Q00534 whole entry): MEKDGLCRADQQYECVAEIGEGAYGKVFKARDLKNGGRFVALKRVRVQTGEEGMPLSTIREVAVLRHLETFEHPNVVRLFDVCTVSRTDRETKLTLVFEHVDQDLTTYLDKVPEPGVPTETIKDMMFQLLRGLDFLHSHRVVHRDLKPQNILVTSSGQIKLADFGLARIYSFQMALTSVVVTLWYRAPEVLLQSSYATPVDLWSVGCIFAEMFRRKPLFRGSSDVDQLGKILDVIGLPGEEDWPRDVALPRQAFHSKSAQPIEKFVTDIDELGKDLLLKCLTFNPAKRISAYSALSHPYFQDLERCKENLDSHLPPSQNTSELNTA
# Sequence of CDK6/Cyclin D3 (P30281 whole entry partner): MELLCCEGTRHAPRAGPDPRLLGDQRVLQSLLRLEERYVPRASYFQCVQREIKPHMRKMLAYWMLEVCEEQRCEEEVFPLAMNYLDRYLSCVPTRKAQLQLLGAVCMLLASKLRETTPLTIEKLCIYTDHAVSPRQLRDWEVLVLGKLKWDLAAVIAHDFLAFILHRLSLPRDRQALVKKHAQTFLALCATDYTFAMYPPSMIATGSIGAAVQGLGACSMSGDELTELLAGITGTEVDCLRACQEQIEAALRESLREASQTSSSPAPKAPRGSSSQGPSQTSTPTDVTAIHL
# Method: Compounds disclosed herein were tested for inhibition of CDK4/Cyclin D1 or CDK6/Cyclin D3 kinase in an assay based on the time-resolved fluorescence-resonance energy transfer (TR-FRET) methodology. The assay was carried out in 384-well low volume black plates in a reaction mixture containing CDK4/Cyclin D1 or CDK6/Cyclin D3, 1 mM ATP, 0.15 μM Rb (Ser780)-biotin substrate and 0-10 μM compound in buffer containing 50 mM HEPES pH7.0, 0.02% NaN3, 0.01% BSA, 0.1 mM Orthovanadate, 50 mM MgCl2, 1 mM DTT and 0.005% Tween-20. The kinase was incubated with compound for 60 minutes at room temperature and the reaction was initiated by the addition of ATP and Rb (Ser780)-biotin substrate. After reaction at room temperature for 120 minutes, an equal volume of stop/detection solution was added according to the manufacture's instruction (Cisbio Bioassays). The stop/detection solution contained Streptavidin-XL665 and Anti-pRb (Ser780) mAb-Eu Cryptate in Detection buffer (Cisbio Bioassays). Plates were incubated at room temperature for 60 minutes, and the TR-FRET signals (ex337 nm, em665 nm/620 nm) were recorded on a PHERAstar FSX plate reader (BMG Labtech). The inhibition percentage of CDK4/Cyclin D1 or CDK6/Cyclin D3 kinase activity in presence of increasing concentrations of compounds was calculated based on the ratio of fluorescence at 665 nm to that at 620 nm. The IC50 for each compound was derived from fitting the data to the four-parameter logistic equation by Dotmatics.
# Sequence of CDK4/Cyclin D1 (P11802 whole entry): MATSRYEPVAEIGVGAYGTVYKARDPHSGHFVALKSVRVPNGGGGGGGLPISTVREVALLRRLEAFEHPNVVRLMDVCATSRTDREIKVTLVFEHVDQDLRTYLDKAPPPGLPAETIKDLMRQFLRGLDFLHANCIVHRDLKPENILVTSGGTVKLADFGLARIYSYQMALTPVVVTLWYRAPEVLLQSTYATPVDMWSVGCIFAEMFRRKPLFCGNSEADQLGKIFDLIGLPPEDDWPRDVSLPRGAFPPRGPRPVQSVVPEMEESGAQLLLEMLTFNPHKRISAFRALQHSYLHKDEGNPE
# Sequence of CDK4/Cyclin D1 (P24385 whole entry partner): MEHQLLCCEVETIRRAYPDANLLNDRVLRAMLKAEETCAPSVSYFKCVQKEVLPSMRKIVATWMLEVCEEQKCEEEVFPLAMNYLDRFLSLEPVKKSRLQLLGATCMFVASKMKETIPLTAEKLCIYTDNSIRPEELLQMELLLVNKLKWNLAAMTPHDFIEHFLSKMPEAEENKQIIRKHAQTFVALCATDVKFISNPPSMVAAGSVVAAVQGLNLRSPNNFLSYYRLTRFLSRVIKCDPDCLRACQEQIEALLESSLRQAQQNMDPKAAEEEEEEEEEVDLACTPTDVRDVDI
SMILES,IC50 (CDK4/Cyclin D1) [nM],IC50 (CDK6/Cyclin D3) [nM]
"CC(C)n1c(CN2CCC[C@@H](O)C2)cc(=O)c2ccc(-c3nc(N[C@@H]4CCOC[C@H]4O)ncc3F)cc21 [Example 57, 7-(5-fluoro-2-(((3S,4R)-3-hydroxytetrahydro-2H-pyran-4-yl)amino)pyrimidin-4-yl)-2-(((R)-3-hydroxypiperidin-1-yl)methyl)-1-isopropylquinolin-4(1H)-one]",16,352
"CC(C)n1c(CN2CCOC[C@H]2C)cc(=O)c2ccc(-c3nc(N[C@@H]4CCOC[C@H]4O)ncc3F)cc21 [Example 82, 7-(5-fluoro-2-(((3S,4R)-3-hydroxytetrahydro-2H-pyran-4-yl)amino)pyrimidin-4-yl)-1-isopropyl-2-(((R)-3-methylmorpholino)methyl)quinolin-4(1H)-one]",12,540
"Cc1c(CN2CC[C@](C)(O)C2)n(C(C)C)c2cc(-c3nc(N[C@@H]4CCOC[C@H]4O)ncc3F)ccc2c1=O [Example 125, 7-(5-fluoro-2-(((3S,4R)-3-hydroxytetrahydro-2H-pyran-4-yl)amino)pyrimidin-4-yl)-2-(((S)-3-hydroxy-3-methylpyrrolidin-1-yl)methyl)-1-isopopyl-3-methylquinolin-4(1H)-one]",15,360
"CC(C)n1c(CN2CC[C@H](F)C2)cc(=O)c2ccc(-c3nc(N[C@@H]4CCOC[C@H]4O)ncc3F)cc21 [Example 27, 7-(5-fluoro-2-(((3S,4R)-3-hydroxytetrahydro-2H-pyran-4-yl)amino)pyrimidin-4-yl)-2-(((S)-3-fluoropyrrolidin-1-yl)methyl)-1-isopropylquinolin-4(1H)-one]",5.7,148
"CC(C)n1c(CN[C@H]2C[C@@H](F)C2)cc(=O)c2ccc(-c3nc(N[C@@H]4CCOC[C@H]4O)ncc3F)cc21 [Example 64, 7-(5-fluoro-2-(((3S,4R)-3-hydroxytetrahydro-2H-pyran-4-yl)amino)pyrimidin-4-yl)-2-((((1s,3S)-3-fluorocyclobutyl)amino)methyl)-1-isopropylquinolin-4(1H)-one]",26,702
"CC(C)n1c(CN2CCC(F)(F)C2)cc(=O)c2ccc(-c3nc(N[C@@H]4CCOC[C@H]4O)ncc3F)cc21 [Example 80, 2-((3,3-difluoropyrrolidin-1-yl)methyl)-7-(5-fluoro-2-(((3S,4R)-3-hydroxytetrahydro-2H-pyran-4-yl)amino)pyrimidin-4-yl)-1-isopropylquinolin-4(1H)-one]",22,616
"Cc1c(CN2[C@@H](C)COC[C@@H]2C)n(C(C)C)c2cc(-c3nc(N[C@@H]4CCOC[C@H]4O)ncc3F)ccc2c1=O [Example 118, 2-(((3S,5S)-3,5-dimethylmorpholino)methyl)-7-(5-fluoro-2-(((3S,4R)-3-hydroxytetrahydro-2H-pyran-4-yl)amino)pyrimidin-4-yl)-1-isopropyl-3-methylquinolin-4(1H)-one]",1.1,51.7
"CC(C)n1c(CN2C3CCC2COC3)cc(=O)c2ccc(-c3nc(N[C@@H]4CCOC[C@H]4O)ncc3F)cc21 [Example 81, 2-((3-oxa-8-azabicyclo[3.2.1]octan-8-yl)methyl)-7-(5-fluoro-2-(((3S,4R)-3-hydroxytetrahydro-2H-pyran-4-yl)amino)pyrimidin-4-yl)-1-isopropylquinolin-4(1H)-one]",23,483
"CC(C)n1cc(Cl)c(=O)c2ccc(-c3nc(N[C@@H]4CCOC[C@H]4O)ncc3F)cc21 [Example 12, 3-chloro-7-(5-fluoro-2-(((3S,4R)-3-hydroxytetrahydro-2H-pyran-4-yl)amino)pyrimidin-4-yl)-1-isopropylquinolin-4(1H)-one]",258,1930
"Cc1cn(C(C)C)c2cc(-c3nc(N[C@@H]4CCOC[C@H]4O)ncc3F)ccc2c1=O [Example 2, 7-(5-fluoro-2-(((3S,4R)-3-hydroxytetrahydro-2H-pyran-4-yl)amino)pyrimidin-4-yl)-1-isopropyl-3-methylquinolin-4(1H)-one]",68,1220
"CC(C)n1c(CN2CCC(C)(O)CC2)cc(=O)c2ccc(-c3nc(N[C@@H]4CCOC[C@H]4O)ncc3F)cc21 [Example 38, 7-(5-fluoro-2-(((3S,4R)-3-hydroxytetrahydro-2H-pyran-4-yl)amino)pyrimidin-4-yl)-2-((4-hydroxy-4-methylpiperidin-1-yl)methyl)-1-isopropylquinolin-4(1H)-one]",24,888
"CC(C)n1c(CN2CCC[C@H](O)C2)cc(=O)c2ccc(-c3nc(N[C@@H]4CCOC[C@H]4O)ncc3F)cc21 [Example 56, 7-(5-fluoro-2-(((3S,4R)-3-hydroxytetrahydro-2H-pyran-4-yl)amino)pyrimidin-4-yl)-2-(((S)-3-hydroxypiperidin-1-yl)methyl)-1-isopropylquinolin-4(1H)-one]",7,238

# More lines, in order of falling IC50 (CDK4/Cyclin D1), values ahead:
IC50 (CDK4/Cyclin D1) [nM],IC50 (CDK6/Cyclin D3) [nM],SMILES
26,598,"CC(C)n1c(CNC2CC(F)(F)C2)cc(=O)c2ccc(-c3nc(N[C@@H]4CCOC[C@H]4O)ncc3F)cc21 [Example 77, 2-(((3,3-difluorocyclobutyl)amino)methyl)-7-(5-fluoro-2-(((3S,4R)-3-hydroxytetrahydro-2H-pyran-4-yl)amino)pyrimidin-4-yl)-1-isopropylquinolin-4(1H)-one]"
24,1060,"CC(C)n1c(CN2CCC3(CCCO3)C2)cc(=O)c2ccc(-c3nc(N[C@@H]4CCOC[C@H]4O)ncc3F)cc21 (stereo partly drawn) [Example 91, 2-((1-oxa-7-azaspiro[4.4]nonan-7-yl)methyl)-7-(5-fluoro-2-(((3S,4R)-3-hydroxytetrahydro-2H-pyran-4-yl)amino)pyrimidin-4-yl)-1-isopropylquinolin-4(1H)-one]"
15,255,"Cc1c(Cl)c(=O)c2ccc(-c3nc(N[C@@H]4CCOC[C@H]4O)ncc3F)cc2n1C(C)C [Example 15, 3-chloro-7-(5-fluoro-2-(((3S,4R)-3-hydroxytetrahydro-2H-pyran-4-yl)amino)pyrimidin-4-yl)-1-isopropyl-2-methylquinolin-4(1H)-one]"
12,324,"CC(C)n1c(CN2C[C@H]3C[C@@H]2CO3)cc(=O)c2ccc(-c3nc(N[C@@H]4CCOC[C@H]4O)ncc3F)cc21 [Example 33, 2-(((1R,4R)-2-oxa-5-azabicyclo[2.2.1]heptan-5-yl)methyl)-7-(5-fluoro-2-(((3S,4R)-3-hydroxytetrahydro-2H-pyran-4-yl)amino)pyrimidin-4-yl)-1-isopropylquinolin-4(1H)-one]"
11,165,"CC(C)n1c(CN2CCOC[C@@H]2C)cc(=O)c2ccc(-c3nc(N[C@@H]4CCOC[C@H]4O)ncc3F)cc21 [Example 53, 7-(5-fluoro-2-(((3S,4R)-3-hydroxytetrahydro-2H-pyran-4-yl)amino)pyrimidin-4-yl)-1-isopropyl-2-(((S)-3-methylmorpholino)methyl)quinolin-4(1H)-one]"
7.4,340,"CC(C)n1c(CN2[C@H](C)COC[C@@H]2C)cc(=O)c2ccc(-c3nc(N[C@@H]4CCOC[C@H]4O)ncc3F)cc21 [Example 107, 2-(((3R,5S)-3,5-dimethylmorpholino)methyl)-7-(5-fluoro-2-(((3S,4R)-3-hydroxytetrahydro-2H-pyran-4-yl)amino)pyrimidin-4-yl)-1-isopropylquinolin-4(1H)-one]"
4.1,406,"CC(C)n1c(CN2CCC[C@@H](C#N)C2)cc(=O)c2ccc(-c3nc(N[C@@H]4CCOC[C@H]4O)ncc3F)cc21 [Example 88, (R)-1-((7-(5-fluoro-2-(((3S,4R)-3-hydroxytetrahydro-2H-pyran-4-yl)amino)pyrimidin-4-yl)-1-isopropyl-4-oxo-1,4-dihydroquinolin-2-yl)methyl)piperidine-3-carbonitrile]"
3.8,407,"CC(C)n1c(CN2CCC[C@H](C#N)C2)cc(=O)c2ccc(-c3nc(N[C@@H]4CCOC[C@H]4O)ncc3F)cc21 [Example 89, (S)-1-((7-(5-fluoro-2-(((3S,4R)-3-hydroxytetrahydro-2H-pyran-4-yl)amino)pyrimidin-4-yl)-1-isopropyl-4-oxo-1,4-dihydroquinolin-2-yl)methyl)piperidine-3-carbonitrile]"
